Like-named read-outs stand apart in the source and are kept apart here.
Molecular target: T1, AR protein in VCaP cells (Homo sapiens, UniProt P10275)
T1 construct: endogenous in cells; host or cells: VCaP cells
T1 sequence (P10275 1-920): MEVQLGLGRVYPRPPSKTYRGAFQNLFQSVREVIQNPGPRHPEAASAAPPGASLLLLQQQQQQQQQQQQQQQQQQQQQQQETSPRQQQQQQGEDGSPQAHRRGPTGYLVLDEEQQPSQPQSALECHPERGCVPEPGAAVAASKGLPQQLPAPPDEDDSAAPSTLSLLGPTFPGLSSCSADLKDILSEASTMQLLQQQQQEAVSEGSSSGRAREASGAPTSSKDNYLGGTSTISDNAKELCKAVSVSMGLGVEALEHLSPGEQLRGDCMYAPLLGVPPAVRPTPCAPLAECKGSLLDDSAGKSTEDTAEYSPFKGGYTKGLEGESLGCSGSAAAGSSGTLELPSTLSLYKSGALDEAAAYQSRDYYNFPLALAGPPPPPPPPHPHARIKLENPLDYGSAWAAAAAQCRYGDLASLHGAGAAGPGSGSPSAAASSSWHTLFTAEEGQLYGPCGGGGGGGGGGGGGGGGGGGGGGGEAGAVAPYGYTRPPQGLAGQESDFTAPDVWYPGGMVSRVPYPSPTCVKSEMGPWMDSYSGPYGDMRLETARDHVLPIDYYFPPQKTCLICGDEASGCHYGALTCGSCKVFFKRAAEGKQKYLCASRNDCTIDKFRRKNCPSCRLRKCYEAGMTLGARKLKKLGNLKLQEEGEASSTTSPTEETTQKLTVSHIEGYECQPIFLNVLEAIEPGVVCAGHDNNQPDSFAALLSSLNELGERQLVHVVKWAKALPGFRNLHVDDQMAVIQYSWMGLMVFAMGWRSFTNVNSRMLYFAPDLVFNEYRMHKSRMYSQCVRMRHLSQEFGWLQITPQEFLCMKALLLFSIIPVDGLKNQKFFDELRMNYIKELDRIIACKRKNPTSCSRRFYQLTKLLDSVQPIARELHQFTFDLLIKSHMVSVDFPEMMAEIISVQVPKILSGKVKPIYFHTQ
Experiment: VCAP AR Degradation Assay (AR ELISA, 24 h)
Assay type: cell-based
Details: for Y (lowest measured AR level normalized to DMSO control): AR degradation efficiency; for DC50: concentration of compound when AR level = 50% of DMSO control
Description: VCAP AR Degradation Assay.
Test compounds were pre-dispensed into a Corning CellBind 96-well clear bottom plate (Cat #3300) using an acoustic dispenser to make a 10-point concentration series at 1:3 dilution for each compound. The final top concentration of each compound was […]. DMSO at a final concentration of 0.1% was used as a control. VCaP cells cultured in DMEM with 8% fetal bovine serum (FBS) were seeded at 50K cells per well in a 200 μL volume into the compound plate and incubated at 37° C. in a CO2 incubator for 24 h. The medium was carefully removed from the cells and the plate was placed on ice. One hundred […] of ice-cold 1× cell lysis buffer from Cell Signaling Technologies (Cat #9803) was added to each well of the cells and the plate was incubated at 4° C. on a shaker for 1 h. Fifteen […] of cell lysate was used for AR ELISA detection using a PathScan Total Sandwich AR ELISA kit (Cell Signaling Technology, Cat #12580). AR levels in compound-treated wells were normalized to that of DMSO control and expressed as percent of control (PoC) (y). A Four Parameter Logistic Model (Sigmoidal Dose-Response Model) was used to determine the compound's DC50, and EC50, using the following equation: y=(A+((B−A)/(1+((C/x)^D)))) • A=YMin (lowest AR level normalized to DMSO control in response to compound • treatment, as determined by curve fit) • B=YMax (maximum AR level as determined by curve fit) • C=EC50 • D=Hill Slope • x=compound concentration • EC50=the concentration of compound when y=(YMax−YMin)/2 • DC50=the concentration of the compound when y=50% of DMSO control (50% AR degradation) • y=AR protein level normalized to DMSO control
The lowest measured AR level normalized to DMSO control in response to compound treatment, termed Y value, was used to characterize the compound-mediated AR degradation efficiency.

| Structure (SMILES) | Y (lowest measured AR level normalized to DMSO control) | DC50 (read-out: DC50) [nM] | DC50 [nM] |
| --- | --- | --- | --- |
| CCc1cc(N2C(=S)N(c3ccc(C#N)c(C(F)(F)F)c3)C(=O)C2(C)C)ccc1OCCC1CCN(CC(=O)Nc2cc(F)cc(NC3CCC(=O)NC3=O)c2)CC1 (centres unmarked) [Cmpd 19, 2-(4-(2-(4-(3-(4-cyano-3-(trifluoromethyl)phenyl)-5,5-dimethyl-4-oxo-2-thioxoimidazolidin-1-yl)-2-ethylphenoxy)ethyl)piperidin-1-yl)-N-(3-(2,6-dioxopiperidin-3-ylamino)-5-fluorophenyl)acetamide] | * (0<Y<=25%) | 100 to 500 | – |
| CCc1cc(N2C(=S)N(c3cnc(C#N)c(C(F)(F)F)c3)C(=O)C2(C)C)ccc1OC1CCN(CC(=O)Nc2cccc(NC3CCC(=O)NC3=O)c2)CC1 (centres unmarked) [Cmpd 53, 2-(4-(4-(3-(6-cyano-5-(trifluoromethyl)pyridin-3-yl)-5,5-dimethyl-4-oxo-2-thioxoimidazolidin-1-yl)-2-ethylphenoxy)piperidin-1-yl)-N-(3-(2,6-dioxopiperidin-3-ylamino)phenyl)acetamide] | ** (25%<Y<=35%) | < 100 | – |
| CCc1cc(N2C(=S)N(c3cnc(C#N)c(C(F)(F)F)c3)C(=O)C2(C)C)ccc1OCCC1(C)CCN(CC(=O)Nc2cc(Cl)cc(NC3CCC(=O)NC3=O)c2)CC1 (centres unmarked) [Cmpd 64, N-(3-chloro-5-(2,6-dioxopiperidin-3-ylamino)phenyl)-2-(4-(2-(4-(3-(6-cyano-5-(trifluoromethyl)pyridin-3-yl)-5,5-dimethyl-4-oxo-2-thioxoimidazolidin-1-yl)-2-ethylphenoxy)ethyl)-4-methylpiperidin-1-yl)acetamide] | * (0<Y<=25%) | 100 to 500 | – |
| CCc1cc(N2C(=S)N(c3cnc(C#N)c(C(F)(F)F)c3)C(=O)C2(C)C)ccc1OCCC1CCN([C@H](C)C(=O)Nc2cccc(N[C@@H]3CCC(=O)NC3=O)c2)CC1 [Cmpd 45, (R)-2-(4-(2-(4-(3-(6-cyano-5-(trifluoromethyl)pyridin-3-yl)-5,5-dimethyl-4-oxo-2-thioxoimidazolidin-1-yl)-2-ethylphenoxy)ethyl)piperidin-1-yl)-N-(3-((R)-2,6-dioxopiperidin-3-ylamino)phenyl)propanamide] | * (0<Y<=25%) | < 100 | – |
| CCc1cc(N2C(=S)N(c3ccc(C#N)c(C(F)(F)F)c3)C(=O)C2(C)C)ccc1OCCC1CCN([C@@H](C)C(=O)Nc2cccc(NC3CCC(=O)NC3=O)c2)CC1 (stereo partly drawn) [Cmpd 41, (2S)-2-(4-(2-(4-(3-(4-cyano-3-(trifluoromethyl)phenyl)-5,5-dimethyl-4-oxo-2-thioxoimidazolidin-1-yl)-2-ethylphenoxy)ethyl)piperidin-1-yl)-N-(3-(2,6-dioxopiperidin-3-ylamino)phenyl)propanamide] | * (0<Y<=25%) | < 100 | – |
| CCc1cc(N2C(=S)N(c3cnc(C#N)c(C(F)(F)F)c3)C(=O)C2(C)C)ccc1OCC[C@@H]1CCN(CC(=O)Nc2cc(NC3CCC(=O)NC3=O)ccc2F)[C@H](C)C1 (stereo partly drawn) [Cmpd 79, 2-((2R,4R)-4-(2-(4-(3-(6-cyano-5-(trifluoromethyl)pyridin-3-yl)-5,5-dimethyl-4-oxo-2-thioxoimidazolidin-1-yl)-2-ethylphenoxy)ethyl)-2-methylpiperidin-1-yl)-N-(5-(2,6-dioxopiperidin-3-ylamino)-2-fluorophenyl)acetamide] | ** (25%<Y<=35%) | 100 to 500 | – |
| CCc1cc(N2C(=S)N(c3cnc(C#N)c(C(F)(F)F)c3)C(=O)C23CCC3)ccc1OCC[C@H]1C[C@H]2CC[C@@H](C1)N2CC(=O)Nc1cccc(NC2CCC(=O)NC2=O)c1 (single isomer, unassigned) [Cmpd 67] | ** (25%<Y<=35%) | – | < 100 |
| CC1(C)C(=O)N(c2ccc(C#N)c(C(F)(F)F)c2)C(=S)N1c1ccc(OCC2CCN(CC(=O)Nc3cc(Cl)cc(NC4CCC(=O)NC4=O)c3)CC2)c(Cl)c1 (centres unmarked) [Cmpd 9, 2-(4-((2-chloro-4-(3-(4-cyano-3-(trifluoromethyl)phenyl)-5,5-dimethyl-4-oxo-2-thioxoimidazolidin-1-yl)phenoxy)methyl)piperidin-1-yl)-N-(3-chloro-5-(2,6-dioxopiperidin-3-ylamino)phenyl)acetamide] | *** (35%<Y<50%) | 500 to 1000 | – |
| CC1(C)C(=O)N(c2cnc(C#N)c(C(F)(F)F)c2)C(=S)N1c1ccc(OCCC2CCN(CC(=O)Nc3cccc(NC4CCC(=O)NC4=O)c3)CC2)c(CCF)c1 (centres unmarked) [Cmpd 58, 2-(4-(2-(4-(3-(6-cyano-5-(trifluoromethyl)pyridin-3-yl)-5,5-dimethyl-4-pxo-2-thioxoimidazolidin-1-yl)-2-(2-fluoroethyl)phenoxy)ethyl)piperidin-1-yl)-N-(3-(2,6-dioxopiperidin-3-ylamino)phenyl)acetamide] | * (0<Y<=25%) | < 100 | – |
| CCc1cc(N2C(=S)N(c3cnc(C#N)c(C(F)(F)F)c3)C(=O)C23CCC3)ccc1OCCC1CCN([C@H](C)C(=O)Nc2cccc(NC3CCC(=O)NC3=O)c2)CC1 (stereo partly drawn) [Cmpd 84, (2R)-2-(4-(2-(4-(7-(6-cyano-5-(trifluoromethyl)pyridin-3-yl)-8-oxo-6-thioxo-5,7-diazaspiro[3.4]octan-5-yl)-2-ethylphenoxy)ethyl)piperidin-1-yl)-N-(3-(2,6-dioxopiperidin-3-ylamino)phenyl)propanamide] | * (0<Y<=25%) | < 100 | – |
| CC1(C)C(=O)N(c2ccc(C#N)c(C(F)(F)F)c2)C(=S)N1c1ccc(OCCC2CCN(CC(=O)Nc3cc(Cl)cc(NC4CCC(=O)NC4=O)c3)CC2)c(CCF)c1 (centres unmarked) [Cmpd 33, N-(3-chloro-5-(2,6-dioxopiperidin-3-ylamino)phenyl)-2-(4-(2-(4-(3-(4-cyano-3-(trifluoromethyl)phenyl)-5,5-dimethyl-4-oxo-2-thioxoimidazolidin-1-yl)-2-(2-fluoroethyl)phenoxy)ethyl)piperidin-1-yl)acetamide] | * (0<Y<=25%) | < 100 | – |
| CCc1cc(N2C(=S)N(c3cnc(C#N)c(C(F)(F)F)c3)C(=O)C23CCC3)ccc1OCC[C@@H]1C[C@H]2CC[C@@H](C1)N2CC(=O)Nc1cccc(NC2CCC(=O)NC2=O)c1 (stereo partly drawn) [Cmpd 68, 2-((1R,3s,5S)-3-(2-(4-(7-(6-cyano-5-(trifluoromethyl)pyridin-3-yl)-8-oxo-6-thioxo-5,7-diazaspiro[3.4]octan-5-yl)-2-ethylphenoxy)ethyl)-8-azabicyclo[3.2.1]octan-8-yl)-N-(3-(2,6-dioxopiperidin-3-ylamino)phenyl)acetamide] | * (0<Y<=25%) | – | < 100 |
| CCc1cc(N2C(=S)N(c3ccc(C#N)c(C(F)(F)F)c3)C(=O)C2(C)C)ccc1OCC[C@H]1CCN(CC(=O)Nc2cc(NC3CCC(=O)NC3=O)ccc2F)[C@H](C)C1 (stereo partly drawn) [Cmpd 82, 2-((2R,4S)-4-(2-(4-(3-(4-cyano-3-(trifluoromethyl)phenyl)-5,5-dimethyl-4-oxo-2-thioxoimidazolidin-1-yl)-2-ethylphenoxy)ethyl)-2-methylpiperidin-1-yl)-N-(5-(2,6-dioxopiperidin-3-ylamino)-2-fluorophenyl)acetamide] | ** (25%<Y<=35%) | 100 to 500 | – |
